In PubChem BioAssay AID328 (DTP/NCI, 2004) one finds T/C data, which are given here for 23 molecules.

“And” between values parts separate entries of the source, which are not always exact repeats. Identical values can stand only once. Inconclusive results and toxic doses are left out.

The subject of the assay is BDF1 mice, P388 leukemia ip, median survival T/C. Description: NCI In Vivo Anticancer Drug Screen. Data for tumor model P388 Leukemia (intraperitoneal) in B6D2F1 (BDF1) mice. As to conditions: endpoint: median survival time, higher = longer survival. Put shortly: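 Reported as T/C, where T is the survival measurement in dosed animals and C the same measurement in vehicle controls.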

[1] abbreviates: dose: 33.0 mg/kg/injection, schedule: Q01DX009 (ip), vehicle: saline with Tween-80.
Setting [2] is: dose: 50.0 mg/kg/injection, schedule: Q01DX009 (ip), vehicle: saline with Tween-80.
The mark [3] stands for this setting: dose: 75.0 mg/kg/injection, schedule: Q01DX009 (ip), vehicle: saline with Tween-80.
Where [4] appears, read: dose: 100.0 mg/kg/injection, schedule: Q04DX003 (ip), vehicle: saline.
Where [5] appears, read: dose: 100.0 mg/kg/injection, schedule: Q01DX009 (ip), vehicle: saline with Tween-80.
The mark [6] stands for this setting: dose: 200.0 mg/kg/injection, schedule: Q01DX009 (ip), vehicle: saline with Tween-80.
Setting [7] is: dose: 50.0 mg/kg/injection, schedule: Q04DX003 (ip), vehicle: saline with Tween-80.
[8] abbreviates: dose: 100.0 mg/kg/injection, schedule: Q04DX003 (ip), vehicle: saline with Tween-80.
[9] abbreviates: dose: 200.0 mg/kg/injection, schedule: Q04DX003 (ip), vehicle: saline with Tween-80.

Turning to `COc1ccc(C[C@@H]2NC[C@@H](O)[C@@H]2OC(C)=O)cc1`, the T/C runs as follows: (dose: 6.25 mg/kg/injection, schedule: Q04DX002 (ip), vehicle: saline with Tween-80) 100 % of control; (dose: 12.5 mg/kg/injection, schedule: Q04DX002 (ip), vehicle: saline with Tween-80) 106 % of control; (dose: 22.0 mg/kg/injection, schedule: Q01DX009 (ip), vehicle: saline) 106 % of control; (dose: 25.0 mg/kg/injection, schedule: Q04DX002 (ip), vehicle: saline with Tween-80) 100 % of control; under setting [1], 112 % of control; (dose: 33.0 mg/kg/injection, schedule: Q01DX009 (ip), vehicle: saline) 106 % of control. Also, the T/C by setting is: (dose: 44.0 mg/kg/injection, schedule: Q04DX003 (ip), vehicle: saline) 102 % of control; under setting [2], 113 % of control; (dose: 50.0 mg/kg/injection, schedule: Q01DX009 (ip), vehicle: saline) 106 % of control; (dose: 50.0 mg/kg/injection, schedule: Q04DX002 (ip), vehicle: saline with Tween-80) 97 % of control; (dose: 66.0 mg/kg/injection, schedule: Q01DX001 (ip), vehicle: saline) 111 % of control; (dose: 66.0 mg/kg/injection, schedule: Q04DX003 (ip), vehicle: saline) 105 % of control. Also, the T/C under setting [3] was 113 % of control; the T/C (dose: 100.0 mg/kg/injection, schedule: Q01DX001 (ip), vehicle: saline) was 104 % of control; the T/C (dose: 100.0 mg/kg/injection, schedule: Q01DX009 (ip), vehicle: saline) was 109 % of control; the T/C (dose: 100.0 mg/kg/injection, schedule: Q04DX002 (ip), vehicle: saline with Tween-80) is 104 % of control; the T/C under setting [4] is 111 % of control; the T/C (dose: 113.0 mg/kg/injection, schedule: Q01DX009 (ip), vehicle: saline with Tween-80) was 120 % of control. In addition, the T/C reads like this: (dose: 150.0 mg/kg/injection, schedule: Q01DX001 (ip), vehicle: saline) 107 % of control; (dose: 150.0 mg/kg/injection, schedule: Q04DX003 (ip), vehicle: saline) 110 % of control; (dose: 169.0 mg/kg/injection, schedule: Q01DX009 (ip), vehicle: saline with Tween-80) 116 % of control; (dose: 225.0 mg/kg/injection, schedule: Q01DX001 (ip), vehicle: saline) 103 % of control; (dose: 225.0 mg/kg/injection, schedule: Q04DX003 (ip), vehicle: saline) 105 % of control; (dose: 338.0 mg/kg/injection, schedule: Q01DX001 (ip), vehicle: saline) 102 % of control.
As to `CCCCCC1c2c(cc(C)[nH]c2=O)OC(O)C1CCCC` (stereo not drawn), the T/C was 93 % of control under setting [2], 90 % of control under setting [5] and 94 % of control under setting [6].
For the molecule `O=C(O)CS(=O)c1ccc2c3c(cccc13)C(=O)c1ccccc1-2` (stereo not drawn), the T/C is 87 % of control (dose: 50.0 mg/kg/injection, schedule: Q01DX005 (ip), vehicle: saline with Tween-80); 94 % of control (dose: 100.0 mg/kg/injection, schedule: Q01DX005 (ip), vehicle: saline with Tween-80); 94 % of control (dose: 200.0 mg/kg/injection, schedule: Q01DX005 (ip), vehicle: saline with Tween-80).
In the case of `CCSC1(SCC)C(=O)OC2=C(CCCCC2)C1N(C)c1ccccc1` (stereo not drawn), the T/C is 87 % of control under setting [2] and 96 % of control under setting [6].
For `CCCC(CC)C(C(=O)OCC)C1=NC(C)(C)CC(C)O1` (stereo not drawn), the T/C reads like this: (dose: 12.5 mg/kg/injection, schedule: Q01DX001 (ip), vehicle: saline sonified) 100 % of control; (dose: 25.0 mg/kg/injection, schedule: Q01DX001 (ip), vehicle: saline sonified) 100 % of control; (dose: 50.0 mg/kg/injection, schedule: Q01DX001 (ip), vehicle: saline sonified) 100 % of control.
As for `CCCCCC1(C)OCC(C)O1` (stereo not drawn), the T/C runs as follows: under setting [2], 101 % of control; under setting [5], 106 % of control; under setting [6], 109 % of control.
Regarding `C[N+](C)(CC(=O)Nc1ccc(Cl)c(C(F)(F)F)c1)Cc1ccc(Cl)cc1`, the T/C is 110 % of control (dose: 25.0 mg/kg/injection, schedule: Q04DX003 (ip), vehicle: saline sonified); 110 % of control (dose: 50.0 mg/kg/injection, schedule: Q04DX003 (ip), vehicle: saline sonified); 90 % of control (dose: 100.0 mg/kg/injection, schedule: Q04DX003 (ip), vehicle: saline sonified).
On to `Cc1ccc(N=NN(C)C)cc1`, for which the T/C runs as follows: under setting [1], 104 % of control; under setting [2], 108 % of control.
As for `COc1c(O)ccc2c1c[n+](C)c1c3cc4c(cc3ccc21)OCO4`, the T/C (dose: 4.0 mg/kg/injection, schedule: Q01DX009 (ip), vehicle: saline) is 113 % of control; the T/C (dose: 8.0 mg/kg/injection, schedule: Q01DX009 (ip), vehicle: saline) was 113 % of control; the T/C (dose: 16.0 mg/kg/injection, schedule: Q01DX009 (ip), vehicle: saline) is 106 % of control.
`NC(=NCCCC(NC(=O)c1ccccc1)C(=O)O)NC(=O)c1ccccc1` (stereo not drawn): the T/C under setting [2] was 103 % of control, the T/C under setting [5] is 120 % of control and the T/C under setting [6] is 118 % of control.
On to `CC1(C)OCC(=NNC(N)=O)CO1`, for which the T/C under setting [4] is 98 % of control.
As for `CCN(CC)CCCC(C)NC(=O)c1ccc(N(C)C)nc1` (stereo not drawn), under “dose: 50.0 mg/kg/injection, schedule: Q01DX009 (ip), vehicle: water”, the T/C is 93 % of control.
For `Cc1nc2c(=O)n(C)c(=O)n(C)c2n1C`, the T/C was 100 % of control under setting [7], 90 % of control under setting [8] and 100 % of control under setting [9].
Regarding `CCCCCCCCSSCCCCCCCC`, the T/C under setting [4] was 95 % of control; the T/C (dose: 200.0 mg/kg/injection, schedule: Q04DX003 (ip), vehicle: saline) was 100 % of control; the T/C (dose: 400.0 mg/kg/injection, schedule: Q04DX003 (ip), vehicle: saline) is 95 % of control.
Take `CC(C)OC(=S)SSc1nc2ccccc2s1`: the T/C is 115 % of control (dose: 9.37 mg/kg/injection, schedule: Q01DX009 (ip), vehicle: saline); 110 % of control (dose: 18.75 mg/kg/injection, schedule: Q01DX009 (ip), vehicle: saline); 112 % of control under setting [3].
As to `CCCOC(=O)/C=C(\Br)C(=O)OCCC`, the T/C runs as follows: (dose: 12.5 mg/kg/injection, schedule: Q04DX003 (ip), vehicle: saline with Tween-80) 108 % of control; (dose: 25.0 mg/kg/injection, schedule: Q04DX003 (ip), vehicle: saline with Tween-80) 110 % of control; under setting [7], 95 % of control.
Take `O=C(CCCc1ccc(N(CCCl)CCCl)cc1)Nc1ncccn1`: the T/C is 88 % of control (dose: 2.0 mg/kg/injection, schedule: Q01DX009 (ip), vehicle: Klucel (hydroxypropylcellulose) (HPC)); 115 % of control (dose: 3.0 mg/kg/injection, schedule: Q01DX009 (ip), vehicle: Klucel (hydroxypropylcellulose) (HPC)); 152 % of control (dose: 6.0 mg/kg/injection, schedule: Q01DX009 (ip), vehicle: Klucel (hydroxypropylcellulose) (HPC)); 188 % of control (dose: 8.0 mg/kg/injection, schedule: Q01DX009 (ip), vehicle: Klucel (hydroxypropylcellulose) (HPC)); 112 % of control (dose: 18.0 mg/kg/injection, schedule: Q01DX009 (ip), vehicle: Klucel (hydroxypropylcellulose) (HPC)); 92 % of control (dose: 25.0 mg/kg/injection, schedule: Q01DX009 (ip), vehicle: Klucel (hydroxypropylcellulose) (HPC)).
For the molecule `CCCNC(=O)Nc1ccc(C)cc1C`, the T/C reads like this: under setting [8], 100 % of control; under setting [9], 95 % of control; (dose: 400.0 mg/kg/injection, schedule: Q04DX003 (ip), vehicle: saline with Tween-80) 100 % of control.
As for `CC(=O)NC(Cc1ccc(F)cc1)C(=O)O` (stereo not drawn), under setting [6], the T/C was 121 % of control.
With `CCCCCCOC(CN(C)C)C(Cl)(Cl)Cl` (stereo not drawn), the T/C is 124 % of control under setting [2], 107 % of control under setting [5] and 116 % of control under setting [6].
For the molecule `CC(=O)OC1CCC2(C)C(CC(=O)C(C)C2(O)CCc2ccoc2)C1(C)C` (stereo not drawn), the T/C (dose: 25.0 mg/kg/injection, schedule: Q01DX009 (ip), vehicle: saline + alcohol) was 91 % of control; the T/C (dose: 50.0 mg/kg/injection, schedule: Q01DX009 (ip), vehicle: saline + alcohol) was 112 % of control; the T/C (dose: 100.0 mg/kg/injection, schedule: Q01DX009 (ip), vehicle: saline + alcohol) was 112 % of control.
Regarding `Nc1nc(N)c2c(n1)CCC(S(=O)(=O)c1ccc3ccccc3c1)C2` (stereo not drawn), the T/C is 103 % of control and 114 % of control under setting [2]; 122 % of control and 124 % of control under setting [5]; 123 % of control under setting [6].
Turning to `CCC(CO)NC(=O)/C=C/c1cc(OC)ccc1OC` (stereo not drawn), the T/C (dose: 400.0 mg/kg/injection, schedule: Q01DX009 (ip), vehicle: saline with Tween-80) is 91 % of control.
